Data reported in patent US20240148821A1, “PHARMACEUTICAL USE OF CYCLIC PEPTIDE COMPOUND” (CHUGAI SEIYAKU KABUSHIKI KAISHA, priority 2021, published 2024).
Numbered stars: 1 amine (or outer) side, 2 acyl side, 3 side chain; on linkers, the order of the positions; unused ones are H or OH. Bridge positions count the residues as written; N and C are the ends. Square brackets hold non-standard residues; d marks the D form. Peptide text beside a SMILES is read from it. * marks the point of attachment. hPhe(3-Cl-4-CF3) = N[C@@H](CCc1ccc(C(F)(F)F)c(Cl)c1)C(=O)O; hPhe(3-F,4-CF3) = N[C@@H](CCc1ccc(C(F)(F)F)c(F)c1)C(=O)O; NMePhe(4-CF3) = CN[C@@H](Cc1ccc(C(F)(F)F)cc1)C(=O)O; Pro(trans-4-Ph) = O=C(O)[C@@H]1C[C@@H](c2ccccc2)CN1; hPhe(4-CF3) = N[C@@H](CCc1ccc(C(F)(F)F)cc1)C(=O)O; NEtPhe(4-Cl) = CCN[C@@H](Cc1ccc(Cl)cc1)C(=O)O; NEtPhe(4-Me) = CCN[C@@H](Cc1ccc(C)cc1)C(=O)O; NMePhe(4-Cl) = CN[C@@H](Cc1ccc(Cl)cc1)C(=O)O; NMedβ3hAla = C[C@H](CC(=O)[*:2])N(C)[*:1]; NMeGly(cPent) = CN[C@H](C(=O)O)C1CCCC1; NMeGly(cBu) = CN[C@H](C(=O)O)C1CCC1; NMeCha = CN[C@@H](CC1CCCCC1)C(=O)O; Hyp = O=C(O)[C@@H]1C[C@@H](O)CN1; NMeAhp(2) = CCCCC[C@H](NC)C(=O)O; NMeChg = CN[C@H](C(=O)O)C1CCCCC1; NMeI = CC[C@H](C)[C@H](NC)C(=O)O; NMeT = CN[C@H](C(=O)O)[C@@H](C)O; Gly(cPr) = N[C@H](C(=O)O)C1CC1; NMeD = CN[C@@H](CC(=O)O)C(=O)O; NMeL = CN[C@@H](CC(C)C)C(=O)O; Ala(CN) = N#CC[C@H](N)C(=O)O; NMeV = CN[C@H](C(=O)O)C(C)C; Trifluoroethyl = FC(F)(F)C*; d(β3hA) = C[C@@H](N)CC(=O)O; NMeS = CN[C@@H](CO)C(=O)O; Morpholide = C1CN(*)CCO1; NMeA = CN[C@@H](C)C(=O)O; NMeAib = CNC(C)(C)C(=O)O; Nle = CCCC[C@H](N)C(=O)O; Piperidide = C1CCN(*)CC1; Pyrrolidide = C1CCN(*)C1; Ac5c = NC1(C(=O)O)CCCC1; Aze = O=C(O)[C@@H]1CCN1; Sar = CNCC(=O)O; Propyl = CCC*

What was measured:
[1] = molecular target: protein-protein interaction between Kras and SOS1 (biotin-tagged human Kras loaded with GDP, His-tagged human SOS1) (Homo sapiens (Human), UniProt P01116, G12D); experiment: Protein-protein interaction inhibition between Kras and SOS1 (KrasG12D-SOS PPI) using AlphaScreen; format: biochemical; details: AlphaScreen; biotin-tagged human Kras loaded with GDP, His-tagged human SOS1; read-out: KRAS G12D-SOS PPI IC50;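 note: kras produced in E. coli, Ni-coupled donor beads and streptavidin acceptor beads, excitation 680 nm with emission detected at 520–620 nm via singlet oxygen transfer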
[2] = tested on: Human pancreatic cancer cell line AsPC-1 (G12D mutation Kras); experiment: AsPC-1 cell growth inhibition (AsPC-1 CGI); format: cell-based; details: read-out: AsPC-1 cell growth inhibition, 50% growth inhibitory concentration (IC50 value); 96 hours, CellTiter-Glo, values classified in ranges
Method: Test compounds were serially dilated with dimethyl sulfoxide, and 200 nL was then dispensed to a U-bottom 96-well plate using Labcyte Echo. […] The cell suspension was dispensed to a. plate containing a test compound at 100 μL per well and incubated at 37° C. in a 5% carbon dioxide gas incubator. 96 hours later, 80 μL of CellTiter-Glo (Promega) was added to each well and fluorescence was measured.

CC[C@H](C)[C@@H]1NC(=O)[C@H](CC(C)C)N(C)C(=O)C[C@@H](C(=O)N2CCCCC2)N(C)C(=O)[C@H](C2CCCCC2)N(C)C(=O)C2(CCCC2)NC(=O)[C@H](C)NC(=O)[C@H](CCc2ccc(C(F)(F)F)c(Cl)c2)NC(=O)CN(C)C(=O)[C@H](CC2CCCCC2)N(C)C(=O)CN(C)C(=O)CN(C)C1=O [Compound 205] ([NMeL]I[Sar][Sar][NMeCha][Sar][hPhe(3-Cl-4-CF3)]A[Ac5c][NMeChg][NMeD]-Piperidide; lactam N-11)
IC50 [1]: 0.49 nM
IC50 [2]: > 500 nM

CCCCC[C@H]1C(=O)N[C@@H]([C@@H](C)CC)C(=O)N[C@@H](C)C(=O)N2CC[C@H]2C(=O)N(C)[C@@H](Cc2ccc(C(F)(F)F)cc2)C(=O)N(C)CC(=O)N[C@@H](CCc2ccc(C(F)(F)F)c(Cl)c2)C(=O)N2CCC[C@H]2C(=O)NC2(CCCC2)C(=O)N(C)[C@@H]([C@@H](C)CC)C(=O)N(C)[C@H](C(=O)N2CCCC2)CC(=O)N1C [Compound 209] ([NMeAhp(2)]IA[Aze][NMePhe(4-CF3)][Sar][hPhe(3-Cl-4-CF3)]P[Ac5c][NMeI][NMeD]-Pyrrolidide; lactam N-11)
IC50 [1]: 1.6 nM
IC50 [2]: ≤ 20 nM

CC[C@H](C)[C@@H]1NC(=O)[C@H](CC(C)C)N(C)C(=O)C[C@@H](C)NC(=O)[C@H](CC(C)C)N(C)C(=O)C2(CCCC2)NC(=O)[C@H](CC(C)C)N(C)C(=O)[C@H](CCc2ccc(C(F)(F)F)c(Cl)c2)NC(=O)CN(C)C(=O)[C@H](CC2CCCCC2)N(C)C(=O)CN(C)C(=O)CN(C)C1=O [Compound 217] (cyclo([Ac5c][NMeL][d(β3hA)][NMeL]I[Sar][Sar][NMeCha][Sar][hPhe(3-Cl-4-CF3)][NMeL]))
IC50 [1]: 66 nM
IC50 [2]: > 500 nM

CC[C@H](C)[C@@H]1NC(=O)[C@H](CC(C)C)N(C)C(=O)C[C@@H](C(=O)N2CCCCC2)N(C)C(=O)[C@H]([C@@H](C)O)N(C)C(=O)C2(CCCC2)NC(=O)[C@@H]2CCCN2C(=O)[C@H](CCc2ccc(C(F)(F)F)c(Cl)c2)NC(=O)CN(C)C(=O)[C@H](CC2CCCCC2)N(C)C(=O)[C@@H]2CCN2C(=O)[C@H](C)N(C)C1=O [Compound 228] ([NMeL]I[NMeA][Aze][NMeCha][Sar][hPhe(3-Cl-4-CF3)]P[Ac5c][NMeT][NMeD]-Piperidide; lactam N-11)
IC50 [1]: 24 nM
IC50 [2]: > 500 nM

CC[C@H](C)[C@@H]1NC(=O)[C@H](CC(C)C)N(C)C(=O)C[C@@H](C(=O)N2CCCCC2)N(C)C(=O)[C@H]([C@@H](C)CC)N(C)C(=O)C2(CCCC2)NC(=O)[C@@H]2CCCN2C(=O)[C@H](CCc2ccc(C(F)(F)F)c(Cl)c2)NC(=O)CN(C)C(=O)[C@H](Cc2ccc(Cl)cc2)N(C)C(=O)[C@@H]2CCN2C(=O)[C@H](C)N(C)C1=O [Compound 253] ([NMeL]I[NMeA][Aze][NMePhe(4-Cl)][Sar][hPhe(3-Cl-4-CF3)]P[Ac5c][NMeI][NMeD]-Piperidide; lactam N-11)
IC50 [1]: 0.99 nM
IC50 [2]: ≤ 20 nM

CC[C@H](C)[C@@H]1NC(=O)[C@H](CC(C)C)N(C)C(=O)C[C@@H](C(=O)N2CCCCC2)N(C)C(=O)[C@H](C(C)C)N(C)C(=O)C2(CCCC2)NC(=O)[C@@H]2CCCN2C(=O)[C@H](CCc2ccc(C(F)(F)F)c(Cl)c2)NC(=O)CN(C)C(=O)[C@H](COCC(F)(F)F)N(C)C(=O)[C@@H]2CCN2C(=O)[C@H](C)N(C)C1=O [Compound 254] ([NMeL]I[NMeA][Aze][NMeS](Trifluoroethyl)[Sar][hPhe(3-Cl-4-CF3)]P[Ac5c][NMeV][NMeD]-Piperidide; lactam N-11)
IC50 [1]: 15 nM
IC50 [2]: > 500 nM

CC[C@H](C)[C@@H]1NC(=O)[C@H](CC(C)C)N(C)C(=O)C[C@@H](C(=O)N2CCCCC2)N(C)C(=O)[C@H](C2CCCCC2)N(C)C(=O)C2(CCCC2)NC(=O)[C@@H]2C[C@@H](c3ccccc3)CN2C(=O)[C@H](CCc2ccc(C(F)(F)F)c(Cl)c2)NC(=O)CN(C)C(=O)[C@H](CC2CCCCC2)N(C)C(=O)[C@@H]2CCCN2C(=O)CN(C)C1=O [Compound 255] ([NMeL]I[Sar]P[NMeCha][Sar][hPhe(3-Cl-4-CF3)][Pro(trans-4-Ph)][Ac5c][NMeChg][NMeD]-Piperidide; lactam N-11)
IC50 [1]: 7.8 nM
IC50 [2]: > 500 nM

CCCC[C@@H]1NC(=O)[C@H](CCc2ccc(C(F)(F)F)c(F)c2)NC(=O)CN(C)C(=O)[C@H](Cc2ccc(Cl)cc2)N(CC)C(=O)CN(C)C(=O)CN(C)C(=O)[C@H]([C@@H](C)CC)NC(=O)[C@H](CC(C)C)N(C)C(=O)C[C@@H](C)N(C)C(=O)[C@H](CC(C)C)NC(=O)C(C)(C)N(C)C1=O [Compound 257] (cyclo(I[Sar][Sar][NEtPhe(4-Cl)][Sar][hPhe(3-F,4-CF3)][Nle][NMeAib]L[NMedβ3hAla][NMeL]))
IC50 [1]: 97 nM
IC50 [2]: > 500 nM

CC[C@H](C)[C@@H]1NC(=O)[C@H](CC(C)C)N(C)C(=O)C[C@@H](C)N(C)C(=O)[C@H](CC(C)C)NC(=O)C(C)(C)N(C)C(=O)[C@H](CC(C)C)NC(=O)[C@H](CCc2ccc(C(F)(F)F)cc2)NC(=O)CN(C)C(=O)[C@H](CC2CCCCC2)N(C)C(=O)CN(C)C(=O)CN(C)C1=O [Compound 262] (cyclo(I[Sar][Sar][NMeCha][Sar][hPhe(4-CF3)]L[NMeAib]L[NMedβ3hAla][NMeL]))
IC50 [1]: 43 nM
IC50 [2]: > 500 nM

CC[C@H](C)[C@@H]1NC(=O)[C@H](C2CCC2)N(C)C(=O)C[C@@H](C(=O)N2CCCCC2)N(C)C(=O)[C@H](C2CCCC2)N(C)C(=O)C2(CCCC2)NC(=O)[C@@H]2CCCN2C(=O)[C@H](CCc2ccc(C(F)(F)F)c(Cl)c2)NC(=O)CN(C)C(=O)[C@H](CC2CCCCC2)N(C)C(=O)[C@@H]2CCN2C(=O)[C@H](C)N(C)C1=O [Compound 270] ([NMeGly(cBu)]I[NMeA][Aze][NMeCha][Sar][hPhe(3-Cl-4-CF3)]P[Ac5c][NMeGly(cPent)][NMeD]-Piperidide; lactam N-11)
IC50 [1]: 0.67 nM
IC50 [2]: ≤ 20 nM

CC[C@H](C)[C@@H]1NC(=O)[C@H](CC(C)C)N(C)C(=O)C[C@@H](C(=O)N2CCOCC2)N(C)C(=O)[C@H]([C@@H](C)CC)N(C)C(=O)C2(CCCC2)NC(=O)[C@@H]2CCCN2C(=O)[C@H](CCc2ccc(C(F)(F)F)c(Cl)c2)NC(=O)CN(C)C(=O)[C@H](Cc2ccc(C(F)(F)F)cc2)N(C)C(=O)[C@@H]2CCN2C(=O)[C@H](C)N(C)C1=O [Compound 276] ([NMeL]I[NMeA][Aze][NMePhe(4-CF3)][Sar][hPhe(3-Cl-4-CF3)]P[Ac5c][NMeI][NMeD]-Morpholide; lactam N-11)
IC50 [1]: 0.76 nM
IC50 [2]: ≤ 20 nM

CC(C)C[C@H]1C(=O)N[C@@H](CC#N)C(=O)N(C)[C@@H](C)C(=O)N2CC[C@H]2C(=O)N(C)[C@@H](CC2CCCCC2)C(=O)N(C)CC(=O)N[C@@H](CCc2ccc(C(F)(F)F)c(Cl)c2)C(=O)N2CCC[C@H]2C(=O)NC2(CCCC2)C(=O)N(C)[C@@H](C(C)C)C(=O)N(C)[C@H](C(=O)N2CCCCC2)CC(=O)N1C [Compound 278] ([NMeL][Ala(CN)][NMeA][Aze][NMeCha][Sar][hPhe(3-Cl-4-CF3)]P[Ac5c][NMeV][NMeD]-Piperidide; lactam N-11)
IC50 [1]: 25 nM
IC50 [2]: > 500 nM

CC[C@H](C)[C@@H]1NC(=O)[C@H](CC(C)C)N(C)C(=O)C[C@@H](C(=O)N(C)C)N(C)C(=O)[C@H](C2CCCC2)N(C)C(=O)C2(CCCC2)NC(=O)[C@@H]2CCCN2C(=O)[C@H](CCc2ccc(C(F)(F)F)c(Cl)c2)NC(=O)CN(C)C(=O)[C@H](Cc2ccc(C)cc2)N(CC)C(=O)[C@@H]2CCN2C(=O)[C@H](C)N(C)C1=O [Compound 279] ([NMeL]I[NMeA][Aze][NEtPhe(4-Me)][Sar][hPhe(3-Cl-4-CF3)]P[Ac5c][NMeGly(cPent)][NMeD]-NMe2; lactam N-11)
IC50 [1]: 0.99 nM
IC50 [2]: ≤ 20 nM

CC(C)C[C@H]1C(=O)N[C@@H](C2CC2)C(=O)N(C)[C@@H](C)C(=O)N2CC[C@H]2C(=O)N(C)[C@@H](CC2CCCCC2)C(=O)N(C)CC(=O)N[C@@H](CCc2ccc(C(F)(F)F)c(Cl)c2)C(=O)N2CCC[C@H]2C(=O)NC2(CCCC2)C(=O)N(C)[C@@H](C(C)C)C(=O)N(C)[C@H](C(=O)N2CCCCC2)CC(=O)N1C [Compound 280] ([NMeL][Gly(cPr)][NMeA][Aze][NMeCha][Sar][hPhe(3-Cl-4-CF3)]P[Ac5c][NMeV][NMeD]-Piperidide; lactam N-11)
IC50 [1]: 24 nM
IC50 [2]: > 500 nM

CCCOC[C@H]1C(=O)N(C)CC(=O)N[C@@H](CCc2ccc(C(F)(F)F)c(F)c2)C(=O)N2CCC[C@H]2C(=O)NC2(CCCC2)C(=O)N(C)[C@@H](C2CCCC2)C(=O)N(C)[C@H](C(=O)N(C)C)CC(=O)N(C)[C@@H](CC(C)C)C(=O)N[C@@H]([C@@H](C)CC)C(=O)N(C)[C@@H](C)C(=O)N2CC[C@H]2C(=O)N1C [Compound 289] ([NMeL]I[NMeA][Aze][NMeS](Propyl)[Sar][hPhe(3-F,4-CF3)]P[Ac5c][NMeGly(cPent)][NMeD]-NMe2; lactam N-11)
IC50 [1]: 0.3 nM
IC50 [2]: ≤ 20 nM

CCO[C@@H]1C[C@H]2C(=O)NC3(CCCC3)C(=O)N(C)[C@@H]([C@@H](C)CC)C(=O)N(C)[C@H](C)CC(=O)N(C)[C@@H](CC(C)C)C(=O)N[C@@H]([C@@H](C)CC)C(=O)N(C)[C@@H](C)C(=O)N3CC[C@H]3C(=O)N(C)[C@@H](Cc3ccc(C(F)(F)F)cc3)C(=O)N(C)CC(=O)N[C@@H](CCc3ccc(C(F)(F)F)c(Cl)c3)C(=O)N2C1 [Compound 301] (cyclo([Ac5c][NMeI][NMedβ3hAla][NMeL]I[NMeA][Aze][NMePhe(4-CF3)][Sar][hPhe(3-Cl-4-CF3)][Hyp](Et)))
IC50 [1]: 0.74 nM
IC50 [2]: ≤ 20 nM
